Reference: patent US11716992B2, “5A5B6C tricyclic spirolactone derivative, preparation method therefor and use thereof” (NANKAI UNIVERSITY, priority 2017, dated 2023)
Where two headings read alike, the source gives them in different places.

Key:
[1] = system: Mythimna separate (Walker); test: Insecticidal activity against Mythimna separate (Walker); format: in vivo; conditions: Mythimna, 100 μg/mL; read-out: insecticidal activity, Mythimna separate (Walker)
[2] = system: Helicoverpa armigera (Hübner); test: Insecticidal activity against Helicoverpa armigera (Hübner); format: in vivo; conditions: Helicoverpa armigera; 100 μg/mL; read-out: insecticidal activity, Helicoverpa armigera (Hübner)
Ostrinia furnacalis = test: Insecticidal activity against Ostrinia furnacalis; format: in vivo; conditions: Ostrinia furnacalis; 100 μg/mL; read-out: insecticidal activity, Ostrinia furnacalis
Alternaria solani = test: Fungicidal activity, fungicide growth rate method, AS; format: cell-based; conditions: Alternaria solani, 50 μg/mL; read-out: fungicidal activity (growth inhibition rate), AS
wheat Gibberella zeae = test: microbe, parasite or virus in culture; format: cell-based; conditions: Fusarium graminearum, read-out: fungicidal activity (growth inhibition rate), GZ, 50 μg/mL
[3] = system: Phytophthora infestans (Mont.) de Bary; test: microbe, parasite or virus in culture; format: cell-based; conditions: Phytophthora infestans, read-out: fungicidal activity (growth inhibition rate), PI, 50 μg/mL
Pellicularia sasakii = test: Fungicidal activity, fungicide growth rate method, PS; format: cell-based; conditions: 50 μg/mL; read-out: fungicidal activity (growth inhibition rate), PS
Rhizoctonia cerealis = test: Fungicidal activity, fungicide growth rate method, RC; format: cell-based; conditions: Ceratobasidium cereale, 50 μg/mL; read-out: fungicidal activity (growth inhibition rate), RC
Sclerotinia sclerotiorum = test: Fungicidal activity, fungicide growth rate method, SS; format: cell-based; conditions: Sclerotinia sclerotiorum, 50 μg/mL
[4] = system: Apis mellifera ligustica Spin; conditions: for Death number after 24 h / Death number after 48 h: per replicate of 10 bees
Caenorhabditis elegans = test: Insecticidal activity against Caenorhabditis elegans; format: in vivo; conditions: Caenorhabditis elegans, 100 μg/mL; read-out: insecticidal activity, Caenorhabditis elegans
Botrytis cinerea = test: Fungicidal activity, fungicide growth rate method, BC; format: cell-based; conditions: Botrytis cinerea, 50 μg/mL; read-out: fungicidal activity (growth inhibition rate), BC
Cercospora arachidicola = test: Fungicidal activity, fungicide growth rate method, CA; format: cell-based; conditions: Mycosphaerella arachidis, 50 μg/mL; read-out: fungicidal activity (growth inhibition rate), CA
Physalospora piricola = test: Fungicidal activity, fungicide growth rate method, PP; format: cell-based; conditions: 50 μg/mL; read-out: fungicidal activity (growth inhibition rate), PP

CCOC(=O)C1C(=O)O[C@]23CC=CC[C@@H]2CC[C@]13O (stereo partly shown) [Zyj07-95] was tested, and the pest or weed control at 100 µg/mL [1] was over 30%, the pest or weed control at 100 µg/mL [2] was 10% and the pest or weed control at 100 µg/mL (Ostrinia furnacalis) was 10%. It also gave an inhibition at 50 µg/mL (Alternaria solani) of over 60%, an inhibition at 50 µg/mL (wheat Gibberella zeae) of over 50% and an inhibition at 50 µg/mL [3] of 29%. It also gave an inhibition at 50 µg/mL (Pellicularia sasakii) of 57%, an inhibition at 50 µg/mL (Rhizoctonia cerealis) of over 70% and an inhibition at 50 µg/mL (Sclerotinia sclerotiorum) of over 50%. The “Death rate after 48 h (%)” value ([4]; dosage 9.36 μg a.i./bee) was 0%, the “Death number after 24 h” value ([4]; dosage 9.36 μg a.i./bee) was 0 and the “Death number after 48 h” value ([4]; dosage 9.36 μg a.i./bee) was 0. For the same molecule, the “Death rate after 48 h (%)” value ([4]; dosage 19.9 μg a.i./bee) was 0%, the “Death number after 24 h” value ([4]; dosage 19.9 μg a.i./bee) was 0 and the “Death number after 48 h” value ([4]; dosage 19.9 μg a.i./bee) was 0.

C=C(C)[C@@H]1C[C@]2(O)CC(=O)O[C@@]23CC=CC[C@H]13 [Zyj06-175] gave a pest or weed control at 100 µg/mL (Caenorhabditis elegans) of 15%, an inhibition at 50 µg/mL (Botrytis cinerea) of 25% and an inhibition at 50 µg/mL (Cercospora arachidicola) of 33%. For the same molecule, the inhibition at 50 µg/mL (wheat Gibberella zeae) was 14%, the inhibition at 50 µg/mL [3] was 0% and the inhibition at 50 µg/mL (Physalospora piricola) was 8%. It also gave an inhibition at 50 µg/mL (Pellicularia sasakii) of 5%, an inhibition at 50 µg/mL (Rhizoctonia cerealis) of 61% and an inhibition at 50 µg/mL (Sclerotinia sclerotiorum) of 11%.

Molecule C=CC[C@@H]1C[C@@]2(O)C[C@@H](CC=C)[C@H]3CC=CC[C@@]32O1 [Zyj07-98] has a pest or weed control at 100 µg/mL [1] of 0%, a pest or weed control at 100 µg/mL [2] of 0% and a pest or weed control at 100 µg/mL (Caenorhabditis elegans) of 25%. For the same molecule, the inhibition at 50 µg/mL (Alternaria solani) was over 60%, the inhibition at 50 µg/mL (Botrytis cinerea) was over 50% and the inhibition at 50 µg/mL (wheat Gibberella zeae) was over 50%. For the same molecule, the inhibition at 50 µg/mL [3] was 17%, the inhibition at 50 µg/mL (Pellicularia sasakii) was 27% and the inhibition at 50 µg/mL (Rhizoctonia cerealis) was over 70%. The inhibition at 50 µg/mL (Sclerotinia sclerotiorum) was over 50%, the “Death rate after 48 h (%)” value ([4]; dosage 8.47 μg a.i./bee) was 0% and the “Death number after 24 h” value ([4]; dosage 8.47 μg a.i./bee) was 0. The “Death number after 48 h” value ([4]; dosage 8.47 μg a.i./bee) was 0.

Molecule C=CC[C@@H]1C[C@@]2(O)C[C@@H](CC=C)[C@H]3C[C@@H](O)CC[C@@]32O1 [Zyj07-68] has a pest or weed control at 100 µg/mL [1] of 0%, a pest or weed control at 100 µg/mL [2] of 0% and a pest or weed control at 100 µg/mL (Ostrinia furnacalis) of 0%. For the same molecule, the pest or weed control at 100 µg/mL (Caenorhabditis elegans) was 13%, the inhibition at 50 µg/mL (Alternaria solani) was 3% and the inhibition at 50 µg/mL (Botrytis cinerea) was 36%. The inhibition at 50 µg/mL (Cercospora arachidicola) was 19%, the inhibition at 50 µg/mL (wheat Gibberella zeae) was 0% and the inhibition at 50 µg/mL [3] was 13%. It also gave an inhibition at 50 µg/mL (Physalospora piricola) of 2%, an inhibition at 50 µg/mL (Pellicularia sasakii) of 9% and an inhibition at 50 µg/mL (Rhizoctonia cerealis) of 21%. For the same molecule, the inhibition at 50 µg/mL (Sclerotinia sclerotiorum) was over 50%, the “Death rate after 48 h (%)” value ([4]; dosage 9.97 μg a.i./bee) was 10.0% and the “Death number after 24 h” value ([4]; dosage 9.97 μg a.i./bee) was 0. The “Death number after 48 h” value ([4]; dosage 9.97 μg a.i./bee) was 1, the “Death rate after 48 h (%)” value ([4]; dosage 16.1 μg a.i./bee) was 0% and the “Death number after 24 h” value ([4]; dosage 16.1 μg a.i./bee) was 0. The “Death number after 48 h” value ([4]; dosage 16.1 μg a.i./bee) was 0.

In the case of CCOC(=O)C1C(=O)O[C@]23CC=CC[C@@H]2[C@H](OC)C[C@]13O (stereo partly shown) [Zyj06-187], the pest or weed control at 100 µg/mL [1] is reported as 10%, the pest or weed control at 100 µg/mL [2] is reported as 0% and the pest or weed control at 100 µg/mL (Ostrinia furnacalis) is reported as 0%. It also gave a pest or weed control at 100 µg/mL (Caenorhabditis elegans) of 8%, an inhibition at 50 µg/mL (Alternaria solani) of 14% and an inhibition at 50 µg/mL (Botrytis cinerea) of 34%. The inhibition at 50 µg/mL (Cercospora arachidicola) was over 50%, the inhibition at 50 µg/mL (wheat Gibberella zeae) was over 50% and the inhibition at 50 µg/mL [3] was 31%. It also gave an inhibition at 50 µg/mL (Pellicularia sasakii) of 0%, an inhibition at 50 µg/mL (Rhizoctonia cerealis) of 50% and an inhibition at 50 µg/mL (Sclerotinia sclerotiorum) of 43%. For the same molecule, the “Death rate after 48 h (%)” value ([4]; dosage 6.08 μg a.i./bee) was 0%, the “Death number after 24 h” value ([4]; dosage 6.08 μg a.i./bee) was 0 and the “Death number after 48 h” value ([4]; dosage 6.08 μg a.i./bee) was 0. The “Death rate after 48 h (%)” value ([4]; dosage 10.6 μg a.i./bee) was 10.0%, the “Death number after 24 h” value ([4]; dosage 10.6 μg a.i./bee) was 0 and the “Death number after 48 h” value ([4]; dosage 10.6 μg a.i./bee) was 1.

In the case of CCOC(=O)C[C@@H]1C[C@]2(O)CC(=O)O[C@@]23CC=CC[C@H]13 [Zyj06-128], the pest or weed control at 100 µg/mL (Caenorhabditis elegans) is reported as over 30%, the inhibition at 50 µg/mL (Botrytis cinerea) is reported as 25% and the inhibition at 50 µg/mL (Cercospora arachidicola) is reported as 27%. The inhibition at 50 µg/mL [3] was 7%, the inhibition at 50 µg/mL (Physalospora piricola) was 8% and the inhibition at 50 µg/mL (Pellicularia sasakii) was 20%. For the same molecule, the inhibition at 50 µg/mL (Rhizoctonia cerealis) was over 70% and the inhibition at 50 µg/mL (Sclerotinia sclerotiorum) was 0%.

Work on C=C(C)C1C[C@]2(O)C(C(=O)OCC)C(=O)O[C@@]23CC=CC[C@H]13 (stereo partly shown) [Zyj06-167] yielded a pest or weed control at 100 µg/mL (Caenorhabditis elegans) of 25%, an inhibition at 50 µg/mL (Botrytis cinerea) of 13% and an inhibition at 50 µg/mL (Cercospora arachidicola) of 26%. It also gave an inhibition at 50 µg/mL (wheat Gibberella zeae) of 46%, an inhibition at 50 µg/mL [3] of 0% and an inhibition at 50 µg/mL (Physalospora piricola) of 0%. It also gave an inhibition at 50 µg/mL (Pellicularia sasakii) of 24%, an inhibition at 50 µg/mL (Rhizoctonia cerealis) of 59% and an inhibition at 50 µg/mL (Sclerotinia sclerotiorum) of 9%.
